Experimental data taken from patent US20250257064A1, “TRIFLUOROMETHYL-SUBSTITUTED SULFONAMIDE AS BCL-2-SELECTIVE INHIBITOR” (Chia Tai Tianqing Pharmaceutical Group Co., Ltd., priority 2018, published 2025).
pIC50: −log10 of the molar value.

Experiments:
[1] = tested on: human platelet Caspase-3 activity; experiment: Human platelet toxicity experiment (Caspase-3 activity assay); assay type: cell-based; settings: compound concentration 1 μM, 90 min; data normalized, reference ABT-199
Experimental: Experimental Example 6: Human Platelet Toxicity Experiment (Caspase-3 Activity Assay)
10 mL of human whole blood was collected using a heparin sodium anticoagulation tube, mixed well by turning upside down, and centrifuged at 90 g for 10 min. The supernatant was collected and centrifuged at 1950 g for 10 min. The supernatant was discarded, and the residue was resuspended in 4 mL of PBS, and centrifuged at 1190 g for 5 min, and the procedure was repeated once. The supernatant was discarded, and the platelets were resuspended in PBS and adjusted to the density of 2-3×10^8 cells/mL. Cells were seeded into a 96-well plate at a density of 2-3×10^7 cells/mL and at 100 μL/well. 50 μL of control buffer was added to each negative control well, and 50 μL of compound at a corresponding concentration was added to each compound well, so that the final concentration of the compound was 2.5 μM, 2 μM, 1 μM or 0.5 μM, followed by incubation in an incubator at 37° C. for 90 min. The liquids in the 96-well plate were transferred to 1.5 mL centrifuge tubes, respectively. The tubes were centrifuged at 4° C. and 6000 g for 5 min, and placed on ice for later use after the supernatant was discarded. 5× lysis buffer was diluted into 1× lysis buffer with water in the kit, and protease inhibitor cocktail was added at a 1:200 ratio to prepare a lysis mixture for later use. 40 μL of lysis mixture was added to each centrifuge tube, and the platelets at the bottom were resuspended using a pipette. The suspension was lysed on ice for 15-20 min and centrifuged at 4° C. and 14,000 g for 10 min. The sample was sub-packaged for later use. 10× assay buffer was diluted into 1× assay buffer with water in the kit, and substrate Ac-DEVD-AMC was added at a 1:600 ratio to prepare a reaction mixture. 5 μL of assay buffer and 40 μL of reaction mixture were added to each blank control well. 5 μL of control platelet lysate and 40 μL of reaction mixture were added to each negative control well. 5 μL of platelet lysate and 40 μL of reaction mixture were added to each compound well. In this procedure, 40 μL of reaction mixture was added at last. The resulting mixture was mixed gently, and the plate was read by a PE Envision multi-functional microplate reader (excitation: 360 nm, emission: 460 nm) once every 10 min for 6 times. Caspase-3 activity was determined based on the intensity of the released AMC fluorescence, that is the slope of the fitted line to which each well corresponds represents Caspase activity (all data were normalized and the reference was ABT-199).

[2] = In vitro stability in human liver microsomes; assay type: in vitro ADME; settings: 1 μM
Experimental: Experimental Example 3: In Vitro Stability in Liver Microsome
300 μL of the final incubation system contains 30 μL of liver microsomes (protein concentration: 5 mg/mL), 30 μL of NADPH+MgCl2, 3 μL of the test compound (in acetonitrile), and 237 μL of PBS buffer (pH 7.4), wherein the proportion of the organic solvent (acetonitrile) is 1% (volume ratio). Two duplicate samples were prepared for each specie (mouse, rat and human), and each sample was 0.3 mL. Each tube which was added with 270 μL of a mixed solution of substrate and enzyme, and NADPH, after being pre-incubated at 37° C. for 5 min, was added with 30 μL of NADPH+MgCl2 and mixed. Then 50 μL of the mixture was taken at 0 min, 15 min, 30 min and 60 min, and added with 300 μL of glacial acetonitrile containing an internal standard to terminate the reaction.
50 μL of the incubated sample was added with 300 μL of glacial acetonitrile containing an internal standard (20 ng/mL diazepam) for precipitation, vortexed for 5 min, and centrifuged (13,000 rpm, 20° C.) for 10 min. 70 μL of supernatant was taken and diluted with 70 μL of ultrapure water. After being mixed well, 1 μL of the resulting sample was injected for analysis.

[3] = molecular target: T1, BCL-2/BAK (Homo sapiens, UniProt P10415); experiment: Screening on inhibitory activity for BCL-2/BAK binding (Cisbio HTRF kit)
T1 construct: purchased Cisbio
T1 sequence (P10415 whole entry, species assumed): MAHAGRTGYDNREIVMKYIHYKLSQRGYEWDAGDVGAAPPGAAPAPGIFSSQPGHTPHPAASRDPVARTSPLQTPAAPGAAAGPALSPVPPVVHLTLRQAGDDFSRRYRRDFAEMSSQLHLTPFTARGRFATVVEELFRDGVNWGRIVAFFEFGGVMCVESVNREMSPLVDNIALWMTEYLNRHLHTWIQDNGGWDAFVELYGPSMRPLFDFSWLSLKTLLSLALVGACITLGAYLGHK
Summary of the method: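 HTRF competition assay: Tag1-BCL-2 and Tag2-BAK working dilutions were 5 nM and 120 nM. Compound (200–0.0488 nM final, 4-fold, 7 points, duplicates) was incubated with the proteins for 15 min at 25 °C, then with Eu-cryptate/XL665 antibodies for ≥2 h at 25 °C. IC50 was derived from a four-parameter fit.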

[4] = tested on: RS4;11 cells; experiment: Inhibitory effect on proliferation of RS4;11 cells (CCK-8); assay type: cell-based, human; settings: Homo sapiens, RS4-11, 72 h
Summary of the method: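 RS4;11 cells were seeded at 1×10^5 cells/mL in RPMI with 5% FBS and incubated 24 h at 37° C, 5% CO2 before compound addition in duplicate. Inhibition was calculated against untreated and blank controls. IC50 came from a four-parameter fit of log concentration versus inhibition.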

| pIC50 [4] | Structure (SMILES) | human platelet Caspase-3 activity, Slope [1] | Human Residual content after 60 min (%) [2] [%] | pIC50 [3] |
| --- | --- | --- | --- | --- |
| 8.64 | CC1(C)CCC(CN2CCN(c3ccc(C(=O)NS(=O)(=O)c4ccc(NCC5CCOCC5)c([N+](=O)[O-])c4)c(Oc4cnc5[nH]ccc5c4)c3)CC2)=C(c2ccc(C(F)(F)F)cc2Cl)C1 [Compound 1-1, 4-(4-{[2-(2-chloro-4-trifluoromethylphenyl)-4,4-dimethylcyclohex-1-enyl]methyl}-piperazin-1-yl)-N-({3-nitro-4-[(tetrahydro-2H-pyran-4-ylmethyl)amino]phenyl}sulfonyl)-2-(1H-pyrrolo[2,3-b]pyridin-5-yloxy)-benzamide] | 0.67 | 70.8 | 8.57 |
| – | CC1(C)CCC(CN2CCN(c3ccc(C(=O)NS(=O)(=O)c4ccc(NC[C@H]5COCCO5)c([N+](=O)[O-])c4)c(Oc4cnc5[nH]ccc5c4)c3)CC2)=C(c2ccc(C(F)(F)F)cc2Cl)C1 [Compound 8-1] | 0.59 | 86.3 | 8.55 |
